Laboratory results from publication PMC8858294, “Impact of distant peptide substrate residues on enzymatic activity of SlyD” (Cellular and Molecular Life Sciences: CMLS, 2022).
Ends that are not written are not given here.

Tests used:
[1] = target: T1, SlyD^WT FKBP (PPIase) domain (Thermus thermophilus, UniProt Q5SLE7); assay: biochemical; format: binding
T1 sequence (Q5SLE7 1-149): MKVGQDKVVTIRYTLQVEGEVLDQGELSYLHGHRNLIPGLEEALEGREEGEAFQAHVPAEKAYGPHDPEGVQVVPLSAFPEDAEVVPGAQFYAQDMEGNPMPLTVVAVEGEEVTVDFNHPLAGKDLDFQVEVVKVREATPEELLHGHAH
Description: (§1) ITC was measured using MicroCal VP-ITC calorimeter (Malvern) and analysed with MicroCal ITC-ORIGIN Analysis Software. First 1 × 3 µl and then 42 × 6.5 µl of 1.2 mM peptides dissolved in 20 mM HEPES (pH 7.5) and 100 mM NaCl were injected every 240 s from the syringe into the cell containing 50 µM SlyD at 25 °C. The resulting isotherms were fitted with one binding site model in case of SlyDΔIF construct and with two binding site model in case of the wild-type SlyD.

SlyDΔIF [2] = target: T2, SlyDΔIF (Thermus thermophilus, UniProt Q5SLE7); assay: ITC, peptide binding to SlyDΔIF (one binding site model); settings: read-out: KD (SlyDΔIF), 1.2 mM peptide into 50 µM SlyD, 25 °C, 20 mM HEPES pH 7.5, 100 mM NaCl, ± error of fit
Description: as §1

[3] = target: T3, SlyD^WT IF (chaperone) domain (Thermus thermophilus, UniProt Q5SLE7); assay: biochemical; format: binding
T3 sequence (Q5SLE7 70-117): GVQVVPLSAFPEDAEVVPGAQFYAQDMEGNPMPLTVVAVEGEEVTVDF
Description: as §1

SlyDΔIF [4] = target: T2, SlyDΔIF; assay: Label-free 1H NMR lineshape prolyl isomerase activity assay with SlyDΔIF; format: biochemical; settings: 1H NMR lineshape analysis, 100 µM peptide, 0 to 6 µM enzyme, 25 °C, 20 mM HEPES, 100 mM NaCl, pH 7.5; linear regression of exchange rate vs enzyme concentration; technical triplicates; error one standard deviation
Description: (§2) ^1H NMR spectra of 100 µM peptide samples in 20 mM HEPES, 100 mM NaCl, pH 7.5 were acquired on a Bruker Avance III NMR-spectrometer at 25 °C and different concentrations of enzyme (0 to 6 µM). Samples contained 10% (v/v) D2O and 0.5 mM TCEP. Spectra have been corrected by subtracting identically measured and processed spectra of enzyme only samples, in order to rule out any influence of signals from the enzymes. Spectra were processed using Topspin (Bruker, Inc) and analyzed in MATLAB (mathworks). […] The obtained relative line broadening of the cis and trans signals of methyl group I, is caused by chemical exchange between the two forms and depends on the population of the cis and trans forms, their chemical shift difference (which are both known from experiments without enzyme) and the apparent exchange rate which was derived from the fit. Errors in the fitted parameters were estimated using Monte-Carlo simulations; the reported errors correspond to one standard deviation.
(§3) Tetrapeptides terminally fused with fluorophores sensitive to proline isomerization have been routinely used to study the activity of peptidyl-prolyl cis–trans isomerases, such as SlyD [11]. […] Studying longer peptides usually requires 2D NMR spectroscopy, often in combination with ^13C labeling, in order to detect separate signals for the cis and trans state. […] This approach, which was initially developed for chemically modified tetrapeptides, relies only on the interaction of a leucine residue upstream of the proline (i − 1) and a phenylalanine residue downstream of the proline (i + 1). The different orientations of the leucine and phenylalanine residues in cis and trans proline conformations give rise to different signals for one of the leucine methyl groups (I), while the other methyl group (II) is mostly unaffected (Fig. 2A). At the same time, the impact of the proline cis/trans conformation on the leucine methyl groups is not dependent on the length of the peptide. The only requirement for the design of the peptide substrate is the absence of additional leucine, isoleucine or valine residues that could interfere with the NMR signals of interest. The linewidth of the signals is affected by the enzymatic turnover rate, which itself is dependent on the enzyme concentration (Fig. 2A). The enzymatic activity (kcat/KM) is then determined by the linear regression of the determined rate at various enzyme concentrations at a fixed substrate concentration below KM (Fig. 2B and SI Fig. 1).

SlyD^WT = assay: Label-free 1H NMR lineshape prolyl isomerase activity assay with SlyD^WT; format: biochemical, Thermus thermophilus; settings: for kcat/KM (SlyD^WT): 1H NMR lineshape analysis, 100 µM peptide, 0 to 6 µM enzyme, 25 °C, 20 mM HEPES, 100 mM NaCl, pH 7.5, linear regression of exchange rate vs enzyme concentration, technical triplicates, error one standard deviation
Description: as §2, §3

[5] = tested on: SlyD^WT FKBP (PPIase) domain; assay: biochemical; format: binding, Thermus thermophilus; settings: ITC, SlyD^WT and SlyDΔIF
Description: as §1

## TRYWNAKMLPFAAGA [F13A]
[1]
  Kd: 6.4 ± 0.3 µM
SlyDΔIF [2]
  Kd: 22.7 ± 0.6 µM
[3]
  Kd: 0.38 ± 0.02 µM
SlyDΔIF [4]
  kcat/KM (SlyDΔIF): 400000 ± 100000 M⁻¹ s⁻¹
SlyD^WT
  kcat/KM (SlyD^WT): 3.1e+06 ± 100000 M⁻¹ s⁻¹

## TRAWNAKMLPFAFGA [Y3A]
[1]
  Kd: 17.3 ± 1.3 µM
SlyDΔIF [2]
  Kd: 51.5 ± 8.6 µM
[3]
  Kd: 0.72 ± 0.1 µM
SlyDΔIF [4]
  kcat/KM (SlyDΔIF): 2.5e+06 ± 300000 M⁻¹ s⁻¹
SlyD^WT
  kcat/KM (SlyD^WT): 3.9e+06 ± 400000 M⁻¹ s⁻¹

## H-TRYWNAKMLPFAKGA-OH [F13K]
[1]
  Kd: 5.2 ± 0.2 µM
SlyDΔIF [2]
  Kd: 20 ± 0.7 µM
[3]
  Kd: 0.11 ± 0.02 µM
SlyDΔIF [4]
  kcat/KM (SlyDΔIF): 2.3e+06 ± 300000 M⁻¹ s⁻¹
SlyD^WT
  kcat/KM (SlyD^WT): 3.4e+06 ± 100000 M⁻¹ s⁻¹

## TRYANAKMLPFAFGA [W4A]
[1]
  Kd: 8.4 ± 0.4 µM
[3]
  Kd: 0.75 ± 0.06 µM
SlyDΔIF [4]
  kcat/KM (SlyDΔIF): 1.1e+06 ± 200000 M⁻¹ s⁻¹
SlyD^WT
  kcat/KM (SlyD^WT): 2e+06 ± 200000 M⁻¹ s⁻¹

## H-TRYWNAKMLPFAFGL-OH [A15L]
[1]
  Kd: 4.1 ± 0.1 µM
SlyDΔIF [2]
  Kd: 14.8 ± 0.2 µM
[3]
  Kd: 0.16 ± 0.02 µM

## H-TRYWNAKMLPFAEGA-OH [F13E]
[5]
  reduction in affinity compared to the psWT peptide: up to fivefold
[1]
  Kd: 10.4 ± 0.5 µM
SlyDΔIF [2]
  Kd: 36.1 ± 0.8 µM
[3]
  Kd: 1.15 ± 0.01 µM
SlyDΔIF [4]
  kcat/KM (SlyDΔIF): 100000 ± 100000 M⁻¹ s⁻¹
SlyD^WT
  kcat/KM (SlyD^WT): 7e+06 ± 600000 M⁻¹ s⁻¹

## TRYWNAKALPFAFGA [M8A]
[1]
  Kd: 6 ± 0.1 µM
SlyDΔIF [2]
  Kd: 19.4 ± 1 µM
[3]
  Kd: 0.24 ± 0.01 µM
SlyDΔIF [4]
  kcat/KM (SlyDΔIF): 3.1e+06 ± 100000 M⁻¹ s⁻¹
SlyD^WT
  kcat/KM (SlyD^WT): 7.7e+06 ± 900000 M⁻¹ s⁻¹

## H-TRYENAKMLPFAFGA-OH [W4E]
[5]
  reduction in affinity compared to the psWT peptide: up to fivefold
[1]
  Kd: 13.9 ± 0.9 µM
[3]
  Kd: 0.86 ± 0.02 µM
SlyDΔIF [4]
  kcat/KM (SlyDΔIF): 900000 ± 200000 M⁻¹ s⁻¹
SlyD^WT
  kcat/KM (SlyD^WT): 4.4e+06 ± 200000 M⁻¹ s⁻¹

## TRYWNAKMLPFAFGA [psWT]
[1]
  Kd: 3.5 ± 0.1 µM
SlyDΔIF [2]
  Kd: 15.6 ± 0.2 µM
[3]
  Kd: 0.22 ± 0.01 µM
SlyDΔIF [4]
  kcat/KM (SlyDΔIF): 2.2e+06 ± 300000 M⁻¹ s⁻¹
SlyD^WT
  kcat/KM (SlyD^WT): 4.9e+06 ± 300000 M⁻¹ s⁻¹
SlyD^WT; 15-residue peptide at 100 µM, chaperone domain occupied
  increase of activity by the chaperone domain (factor, SlyD^WT vs SlyDΔIF): 2.2

## H-TRYKNAKMLPFAFGA-OH [W4K]
[1]
  Kd: 3.2 ± 0.3 µM
SlyDΔIF [2]
  Kd: 12.6 ± 0.8 µM
[3]
  Kd: 0.21 ± 0.01 µM
SlyDΔIF [4]
  kcat/KM (SlyDΔIF): 3.5e+06 ± 700000 M⁻¹ s⁻¹
SlyD^WT
  kcat/KM (SlyD^WT): 2.2e+06 ± 300000 M⁻¹ s⁻¹

## R2A: psWT peptide substrate with mutation R2A (TAYWNAKMLPFAFGA)
SlyDΔIF [4]
  kcat/KM (SlyDΔIF): 1.3e+06 ± 200000 M⁻¹ s⁻¹
SlyD^WT
  kcat/KM (SlyD^WT): 5.1e+06 ± 300000 M⁻¹ s⁻¹

## H-TRYWNAKMLPFAFMA-OH [G14M]
[1]
  Kd: 2.2 ± 0.1 µM
SlyDΔIF [2]
  Kd: 8.3 ± 0.5 µM
[3]
  Kd: 0.1 ± 0.01 µM
